# Source: US20240384268A1, “Oligonucleotides” (Hudson Institute of Medical Research, priority 2021, published 2024)
# In the oligonucleotide strings, read from the 5' end, every base follows the letter of its sugar. An asterisk marks phosphorothioate; unmarked linkages are phosphodiester. Other units and linkages are bracketed, terminal groups are in braces. A string of capitals states the bases alone. d = 2'-deoxy (DNA); m = 2'-O-methyl
# Target: cGAS (Homo sapiens, UniProt Q8N884)
# Assay: ISD70-driven IP-10 (and IFN-β) production in THP-1 cells, ELISA
# Type: cell-based
# Set-up: endogenous in cells; host or cells: THP-1 (undifferentiated)
# Details: THP-1; 100 nM ASO overnight, then ISD70 2.5 μg/ml 7-8 h; percentage of ISD70 only
# cGAS, sequence (Q8N884 whole entry): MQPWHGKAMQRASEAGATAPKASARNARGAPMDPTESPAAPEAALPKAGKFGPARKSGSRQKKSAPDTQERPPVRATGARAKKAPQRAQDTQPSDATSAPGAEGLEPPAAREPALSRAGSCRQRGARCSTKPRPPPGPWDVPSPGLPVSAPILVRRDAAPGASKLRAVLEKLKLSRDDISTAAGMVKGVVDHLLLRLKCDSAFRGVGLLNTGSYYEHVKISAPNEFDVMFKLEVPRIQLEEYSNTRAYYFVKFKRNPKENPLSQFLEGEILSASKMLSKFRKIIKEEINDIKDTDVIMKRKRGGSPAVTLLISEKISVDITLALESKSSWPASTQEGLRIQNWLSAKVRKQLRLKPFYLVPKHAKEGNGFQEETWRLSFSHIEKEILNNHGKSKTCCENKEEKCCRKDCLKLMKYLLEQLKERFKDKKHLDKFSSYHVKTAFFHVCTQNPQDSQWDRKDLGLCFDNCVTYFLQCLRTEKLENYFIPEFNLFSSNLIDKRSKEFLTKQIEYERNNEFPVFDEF
row,Substance,cGAS-100 nM: averaged IP-10 levels relative to ISD70 [%]
1,mC*mU*mC*mU*mC*T*G*G*T*C*C*C*A*T*C*mC*mC*mU*mU*mC (mC*mU*mC*mU*mC*dT*dG*dG*dT*dC*dC*dC*dA*dT*dC*mC*mC*mU*mU*mC; antisense) [[LINC-PINT]109],80.22
2,mC*mU*mU*mC*mU*C*T*C*T*G*G*T*C*C*C*mA*mU*mC*mC*mC (mC*mU*mU*mC*mU*dC*dT*dC*dT*dG*dG*dT*dC*dC*dC*mA*mU*mC*mC*mC) [[LINC-PINT]112],82.64
3,mC*mU*mU*mU*mA*T*A*T*T*A*C*A*A*A*G*mC*mU*mA*mC*mU (mC*mU*mU*mU*mA*dT*dA*dT*dT*dA*dC*dA*dA*dA*dG*mC*mU*mA*mC*mU; antisense) [[LINC-PINT]2755],92.54
4,"mG*mA*mA*mA*mA*G*A*T*T*A*T*C*T*T*C*mU*mU*mU*mU*mA (GAAAAGATTATCTTCUUUUA; sugars from the 5' end m5 d10 m5, all phosphorothioate, methylation of C not given here) [[CDKN2B-AS1]2134]",51.49
5,"mG*mA*mU*mG*mG*T*T*C*C*A*G*T*C*C*C*mU*mC*mU*mU*mC (GAUGGTTCCAGTCCCUCUUC; antisense; sugars from the 5' end m5 d10 m5, all phosphorothioate, methylation of C not given here) [[LINC-PINT]1497.1]",26.05
6,mG*mA*mU*mU*mA*A*A*A*C*A*G*A*T*T*A*mA*mU*mA*mC*mA (mG*mA*mU*mU*mA*dA*dA*dA*dC*dA*dG*dA*dT*dT*dA*mA*mU*mA*mC*mA) [[CDKN2B-AS1]1773],89.36
7,"mG*mC*mA*mA*mG*G*C*A*G*A*G*A*A*A*C*mU*mC*mC*mA*mG (GCAAGGCAGAGAAACUCCAG; sugars from the 5' end m5 d10 m5, all phosphorothioate, methylation of C not given here) [[LINC-PINT]1315 KL]",30.64
8,"mG*mC*mG*mU*mA*G*T*T*T*C*T*C*T*T*C*mC*mU*mC*mC*mC (GCGUAGTTTCTCTTCCUCCC; sugars from the 5' end m5 d10 m5, all phosphorothioate, methylation of C not given here) [[LINC-PINT]935 KL]",50.62
9,"mG*mG*mA*mU*mU*A*A*A*A*C*A*G*A*T*T*mA*mA*mU*mA*mC (GGAUUAAAACAGATTAAUAC; sugars from the 5' end m5 d10 m5, all phosphorothioate, methylation of C not given here) [[CDKN2B-AS1]1774]",50.11
10,"mG*mG*mG*mU*mC*T*C*C*T*C*C*A*C*A*C*mC*mC*mU*mU*mC (GGGUCTCCTCCACACCCUUC; antisense; sugars from the 5' end m5 d10 m5, all phosphorothioate, methylation of C not given here) [[LINC-PINT]128]",37.83
11,"mG*mG*mU*mC*mC*C*A*T*C*C*C*T*T*C*T*mG*mC*mU*mG*mC (GGUCCCATCCCTTCTGCUGC; sugars from the 5' end m5 d10 m5, all phosphorothioate, methylation of C not given here) [[LINC-PINT]103]",45.23
12,mG*mG*mU*mC*mU*C*C*T*C*C*A*C*A*C*C*mC*mU*mU*mC*mU (mG*mG*mU*mC*mU*dC*dC*dT*dC*dC*dA*dC*dA*dC*dC*mC*mU*mU*mC*mU; antisense) [[LINC-PINT]127],36.95
13,"mG*mG*mU*mG*mG*C*C*A*C*A*G*G*C*A*A*mC*mG*mU*mC*mA (GGUGGCCACAGGCAACGUCA; antisense; sugars from the 5' end m5 d10 m5, all phosphorothioate, methylation of C not given here) [[CDKN2B-AS1]2196]",48.58
14,mG*mU*mC*mA*mA*A*C*C*T*A*G*A*A*A*G*mA*mA*mG*mC*mA (mG*mU*mC*mA*mA*dA*dC*dC*dT*dA*dG*dA*dA*dA*dG*mA*mA*mG*mC*mA; antisense) [[CDKN2B-AS1]1528],68.94
15,mG*mU*mC*mC*mC*A*G*G*C*C*T*C*C*A*G*mU*mG*mU*mC*mU (mG*mU*mC*mC*mC*dA*dG*dG*dC*dC*dT*dC*dC*dA*dG*mU*mG*mU*mC*mU; antisense) [[CDKN2B-AS1]2223],74.22
16,"mG*mU*mC*mC*mC*A*T*C*C*C*T*T*C*T*G*mC*mU*mG*mC*mC (GUCCCATCCCTTCTGCUGCC; antisense; sugars from the 5' end m5 d10 m5, all phosphorothioate, methylation of C not given here) [[LINC-PINT]102]",113.87
17,mG*mU*mC*mC*mG*T*A*C*C*T*C*C*A*C*C*mC″mA*mC*mC*mG [[LINC-PINT]727.1],86.09

row,Substance,cGAS-100 nM: averaged IP-10 levels relative to ISD70 [%]
1,mG*mU*mC*mU*mC*C*T*C*C*A*C*A*C*C*C*mU*mU*mC*mU*mC (mG*mU*mC*mU*mC*dC*dT*dC*dC*dA*dC*dA*dC*dC*dC*mU*mU*mC*mU*mC; antisense) [[LINC-PINT]126],114.36
2,mG*mU*mU*mC*mA*G*T*C*A*G*A*T*C*G*C*mU*mG*mG*mG*mA (mG*mU*mU*mC*mA*dG*dT*dC*dA*dG*dA*dT*dC*dG*dC*mU*mG*mG*mG*mA) [[LINC-PINT]412 KL],93.74
3,mU*mA*mA*mA*mA*T*A*A*G*G*G*G*A*A*T*mA*mG*mG*mG*mG (mU*mA*mA*mA*mA*dT*dA*dA*dG*dG*dG*dG*dA*dA*dT*mA*mG*mG*mG*mG) [[CDKN2B-AS1]80],110.58
4,mU*mC*mC*mC*mA*A*C*T*C*T*T*C*T*A*A*mC*mU*mC*mG*mU (mU*mC*mC*mC*mA*dA*dC*dT*dC*dT*dT*dC*dT*dA*dA*mC*mU*mC*mG*mU; antisense) [[LINC-PINT]1284 KL],99.64
5,"mU*mC*mC*mC*mA*T*C*C*C*T*T*C*T*G*C*mU*mG*mA*mC*mA (UCCCATCCCTTCTGCUGACA; sugars from the 5' end m5 d10 m5, all phosphorothioate, methylation of C not given here) [[LINC-PINT]101]",86.62
6,mU*mC*mU*mC*mC*A*T*G*T*C*C*C*A*G*G*mC*mC*mU*mC*mC (mU*mC*mU*mC*mC*dA*dT*dG*dT*dC*dC*dC*dA*dG*dG*mC*mC*mU*mC*mC; antisense) [[CDKN2B-AS1]2230],94.78
7,mU*mC*mU*mC*mU*C*T*G*G*T*C*C*C*A*T*mC*mC*mC*mU*mU (mU*mC*mU*mC*mU*dC*dT*dG*dG*dT*dC*dC*dC*dA*dT*mC*mC*mC*mU*mU; antisense) [[LINC-PINT]110],92.39
8,"mU*mC*mU*mC*mU*G*G*T*C*C*C*A*T*C*C*mC*mU*mU*mC*mU (UCUCUGGTCCCATCCCUUCU; antisense; sugars from the 5' end m5 d10 m5, all phosphorothioate, methylation of C not given here) [[LINC-PINT]108]",104.65
9,"mU*mC*mU*mG*mG*T*C*C*C*A*T*C*C*C*T*mU*mC*mU*mG*mC (UCUGGTCCCATCCCTUCUGC; antisense; sugars from the 5' end m5 d10 m5, all phosphorothioate, methylation of C not given here) [[LINC-PINT]106]",48.75
10,mU*mG*mA*mC*mA*A*A*A*C*A*A*T*A*A*T*mA*mA*mC*mA*mG (mU*mG*mA*mC*mA*dA*dA*dA*dC*dA*dA*dT*dA*dA*dT*mA*mA*mC*mA*mG) [[LINC-PINT]384],88.79
11,mU*mG*mA*mC*mA*T*T*T*C*G*T*G*G*C*T*mC*mC*mU*mA*mC (mU*mG*mA*mC*mA*dT*dT*dT*dC*dG*dT*dG*dG*dC*dT*mC*mC*mU*mA*mC; antisense) [[LINC-PINT]523 KL],39.34
12,mU*mG*mA*mU*mG*A*T*G*C*T*T*G*C*A*G*mG*mA*mG*mG*mC (mU*mG*mA*mU*mG*dA*dT*dG*dC*dT*dT*dG*dC*dA*dG*mG*mA*mG*mG*mC) [[LINC-PINT|283.1],85.85
13,mU*mG*mG*mC*mG*T*A*G*T*T*T*C*T*C*T*mU*mC*mC*mU*mC (mU*mG*mG*mC*mG*dT*dA*dG*dT*dT*dT*dC*dT*dC*dT*mU*mC*mC*mU*mC; antisense) [[LINC-PINT]937.1],70.97
14,"mU*mG*mU*mG*mA*A*A*A*G*A*T*T*A*T*C*mU*mU*mC*mU*mU (UGUGAAAAGATTATCUUCUU; sugars from the 5' end m5 d10 m5, all phosphorothioate, methylation of C not given here) [[CDKN2B-AS1]2137]",40.72
15,"mU*mG*mU*mU*mU*C*C*C*C*G*G*A*G*A*G*mC*mA*mA*mU*mG (UGUUUCCCCGGAGAGCAAUG; antisense; sugars from the 5' end m5 d10 m5, all phosphorothioate, methylation of C not given here) [[LINC-PINT]501 KL]",57.81
16,"mU*mU*mA*mA*mA*T*A*A*T*C*T*A*G*T*T*mU*mG*mA*mA*mG (UUAAATAATCTAGTTUGAAG; sugars from the 5' end m5 d10 m5, all phosphorothioate, methylation of C not given here) [[CDKN2B-AS1]132]",52.20
17,mU*mU*mA*mG*mC*T*C*C*T*T*G*C*C*T*C*mG*mU*mU*mC*mC (mU*mU*mA*mG*mC*dT*dC*dC*dT*dT*dG*dC*dC*dT*dC*mG*mU*mU*mC*mC; antisense) [[LINC-PINT] 1222],63.80

# Same assay, conditions: THP-1; 2′OMe or PS oligos, 100-250 nM, pre-treatment as in figure legends; ISD70 2.5 μg/ml
row,Substance,inhibition of ISD70-driven IP-10 production (in words)
1,"mG*mA*mU*mG*mG*T*T*C*C*A*G*T*C*C*C*mU*mC*mU*mU*mC (GAUGGTTCCAGTCCCUCUUC; antisense; sugars from the 5' end m5 d10 m5, all phosphorothioate, methylation of C not given here) [[LINC-PINT]1497.1]",significant effect
2,"mG*mG*mU*mC*mC*C*A*T*C*C*C*T*T*C*T*mG*mC*mU*mG*mC (GGUCCCATCCCTTCTGCUGC; sugars from the 5' end m5 d10 m5, all phosphorothioate, methylation of C not given here) [[LINC-PINT]103]",significantly inhibiting ISD70-driven IP-10 production
